Source: US20230145835A1, “Modulators of Alpha-4-beta-7 Integrin and MAdCAM” (48HD Biopharma Inc., priority 2021, published 2023)
Numbered stars: 1 amine (or outer) side, 2 acyl side, 3 side chain; on linkers, the order of the positions; unused ones are H or OH. Bridge positions count the residues as written; N and C are the ends. Peptide text beside a SMILES is read from it. X3 = O=C(/C=N/OCCCCCCOc1cc(C[*:2])cc(C[*:3])c1)[*:1]; X1 = O=C(C=NOCCCCCCOc1cc(C[*:2])cc(C[*:3])c1)[*:1]; X2 = O=C(C=NOCc1cc(C[*:2])cc(C[*:3])c1)[*:1]

Columns and labels:
in vitro = settings: simulated gi fluid
Description: Studies were carried out in simulated intestinal fluid (SIF) to evaluate the intestinal stability of the peptide molecules of the peptides of the instant disclosure. A Fasted State Simulated Intestinal Fluid (FaSSIF) reagent was prepared according to methods known in the art (including addition of the enzyme pancreatin), to which stock peptide solutions were added, incubated, quenched, and analyzed using LCMS/MS.
Percent remaining at each time point was calculated based on the peak area response ratio of test to compound to internal standard. Half-lives were calculated by fitting to a first-order exponential decay equation using GraphPad.

rh-integrin α4β7/LPAM-1 [1] = target: T1, rh-integrin α4β7/LPAM-1 (Homo sapiens, UniProt P13612+P26010); experiment: α4β7-MadCAM Competition ELISA (Example 4); assay type: binding; settings: IC50, competition ELISA, 4 μg/mL α4β7 coated, MAdCAM and peptide mixture, 28° C.
T1 sequence (P13612 34-977 limits assumed): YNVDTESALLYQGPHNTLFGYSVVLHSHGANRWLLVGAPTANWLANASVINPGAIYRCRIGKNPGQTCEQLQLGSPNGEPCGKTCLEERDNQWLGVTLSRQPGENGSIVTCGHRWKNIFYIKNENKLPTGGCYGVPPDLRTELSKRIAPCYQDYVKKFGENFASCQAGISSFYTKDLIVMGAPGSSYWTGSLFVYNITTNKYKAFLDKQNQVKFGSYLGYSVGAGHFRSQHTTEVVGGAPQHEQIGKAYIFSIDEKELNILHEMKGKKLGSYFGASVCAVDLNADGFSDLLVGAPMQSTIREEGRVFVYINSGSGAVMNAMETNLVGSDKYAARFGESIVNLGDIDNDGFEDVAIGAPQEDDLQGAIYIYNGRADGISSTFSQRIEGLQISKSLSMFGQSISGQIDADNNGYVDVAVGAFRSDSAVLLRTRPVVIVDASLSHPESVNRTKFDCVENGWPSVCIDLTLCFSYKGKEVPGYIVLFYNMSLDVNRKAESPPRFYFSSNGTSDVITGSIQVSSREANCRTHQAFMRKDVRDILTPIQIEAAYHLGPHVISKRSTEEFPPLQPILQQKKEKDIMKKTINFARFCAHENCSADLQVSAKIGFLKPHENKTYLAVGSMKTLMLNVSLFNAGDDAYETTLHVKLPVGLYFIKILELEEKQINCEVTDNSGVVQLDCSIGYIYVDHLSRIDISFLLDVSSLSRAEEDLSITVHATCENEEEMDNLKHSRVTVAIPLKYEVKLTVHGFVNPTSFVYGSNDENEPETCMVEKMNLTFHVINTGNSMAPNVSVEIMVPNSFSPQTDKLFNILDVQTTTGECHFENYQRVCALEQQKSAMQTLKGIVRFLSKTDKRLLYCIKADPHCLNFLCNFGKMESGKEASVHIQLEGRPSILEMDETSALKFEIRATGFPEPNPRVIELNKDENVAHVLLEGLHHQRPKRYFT
T1 sequence (P26010 20-723 limits assumed): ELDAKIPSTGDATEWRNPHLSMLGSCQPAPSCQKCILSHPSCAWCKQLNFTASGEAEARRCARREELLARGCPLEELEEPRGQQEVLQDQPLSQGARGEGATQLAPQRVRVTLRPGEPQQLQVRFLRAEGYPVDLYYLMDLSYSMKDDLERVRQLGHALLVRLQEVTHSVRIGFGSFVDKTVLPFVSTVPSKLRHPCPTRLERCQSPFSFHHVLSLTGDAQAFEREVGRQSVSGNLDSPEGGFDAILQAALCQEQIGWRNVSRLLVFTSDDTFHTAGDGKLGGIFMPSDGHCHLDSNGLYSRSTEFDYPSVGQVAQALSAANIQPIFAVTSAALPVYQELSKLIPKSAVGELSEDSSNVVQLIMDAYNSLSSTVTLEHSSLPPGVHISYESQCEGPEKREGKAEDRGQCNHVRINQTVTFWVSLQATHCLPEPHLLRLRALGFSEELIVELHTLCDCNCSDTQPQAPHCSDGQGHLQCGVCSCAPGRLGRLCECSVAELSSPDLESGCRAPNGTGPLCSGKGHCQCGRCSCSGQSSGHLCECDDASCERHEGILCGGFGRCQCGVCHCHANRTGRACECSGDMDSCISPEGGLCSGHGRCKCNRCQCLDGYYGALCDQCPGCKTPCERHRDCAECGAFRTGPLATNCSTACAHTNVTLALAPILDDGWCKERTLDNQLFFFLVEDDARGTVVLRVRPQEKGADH
Description: After washing with wash buffer, 200 μL assay buffer was added to each well and incubated for one hour at 28° C. After another wash with wash buffer, 100 μL of a MAdCAM and peptide mixture in assay buffer was added to each well and incubated for one hour at 28° C., followed by washing with wash buffer.

rh-integrin α4β7/LPAM-1 [2] = target: T1, rh-integrin α4β7/LPAM-1; experiment: Competition Binding Assay (competition ELISA, Example 1)

half-life (in vitro) | SMILES | IC50 (rh-integrin α4β7/LPAM-1 [1]) | IC50 (rh-integrin α4β7/LPAM-1 [2])
1.32 h | C[C@@H](O)[C@@H]1NC(=O)[C@H](CC(=O)O)NC(=O)[C@@H]2CCCN2C(=O)[C@H](Cc2ccc(O)cc2)NC(=O)[C@@H](NC(=O)[C@H](CC(=O)O)NC(=O)[C@@H](N)CO)CSSC[C@@H](C(N)=O)NC(=O)[C@H](Cc2c[nH]cn2)NC(=O)[C@H](Cc2ccc(O)cc2)NC1=O [SEQ ID NO. 14] (H-SDCYPDTYHC-NH2; disulfide 3-10) | – | –
– | CC(C)C[C@@H]1NC(=O)[C@H]([C@@H](C)O)NC(=O)[C@H](CC(=O)O)NC(=O)[C@H](CO)NC(=O)[C@H](CCCNC(=N)N)NC(=O)[C@@H]2CSCc3cc(cc(c3)CSC[C@@H](C(=O)O)NC1=O)CON=CC(=O)N[C@@H](C)C(=O)N2 [SEQ ID NO: 70] (ACRSDTLC-OH; linker N-2-8 via X2) | 111 µM | 111 µM
– | CC(C)C[C@@H]1NC(=O)[C@H]([C@@H](C)O)NC(=O)[C@H](CC(=O)O)NC(=O)[C@H](CO)NC(=O)[C@H](CCCNC(=N)N)NC(=O)[C@@H]2CSCc3cc(cc(c3)OCCCCCCO/N=C/C(=O)N[C@@H](C)C(=O)N2)CSC[C@@H](C(N)=O)NC1=O [SEQ ID NO: 25] (ACRSDTLC-NH2; linker N-2-8 via X3; C-terminus assumed) | – | 79.8 µM
– | CC[C@H](C)[C@@H]1NC(=O)[C@H](CC(=O)O)NC(=O)[C@H](CCSC)NC(=O)[C@@H]2CCCN2C(=O)[C@@H]2CSCc3cc(cc(c3)OCCCCCCO/N=C/C(=O)N[C@@H](CCC(N)=O)C(=O)N2)CSC[C@@H](C(N)=O)NC(=O)[C@H]([C@@H](C)O)NC(=O)[C@@H]2CCCN2C1=O [SEQ ID NO: 23] (QCPMDIPTC-NH2; linker N-2-9 via X3; C-terminus assumed) | – | 1.32 µM
1.36 h | CC(C)C[C@@H]1NC(=O)[C@@H]2CSCc3cc(cc(c3)OCCCCCCON=CC(=O)N[C@@H](CCCCN)C(=O)N2)CSC[C@@H](C(=O)O)NC(=O)[C@H]([C@@H](C)O)NC(=O)[C@H](CCC(N)=O)NC(=O)[C@H](CCC(=O)O)NC(=O)[C@H](Cc2c[nH]c3ccccc23)NC(=O)CNC1=O [SEQ ID NO. 20] (KCLGWEQTC-OH; linker N-2-9 via X1) | – | –
